Several values for one entry are separate records, joined by “and”; a condition that tells them apart may be missing. Equal values may be shown once.
Key:
Format in all cases: cell-based
human PBMN [1] = test: TNF release by PBMN with LPS plus composition in the presence of Polymyxin
Description: (§1) In the studies of TNF, whole blood was drawn from 5 healthy subjects into heparinized Vacutainer tubes. Peripheral blood mononuclear cells (PBMNs) were isolated by gradient centrifugation on Ficoll-Hypaque (Pharmacia). The PBMN were washed twice with phosphate buffered saline (PBS), counted and resuspended in RPMI 1640 culture medium (Gibco Labs) at a concentration of 10^6 cells/0.5 ml. These cells were cultured in 24 well, flat-bottomed tissue culture plates (Falcon, Becton, Dickinson). […] The total volume was then made up to 1 ml/well with RPMI. As control, PBS was used instead of composition. The cells were cultured for 2, 6, 24, 48 and 72 hours at 37° C. in a humidified 5% CO2 incubator. At the end of each incubation period, the cells were harvested and cell free culture fluids were obtained by centrifugation at 9000 rpm for 10 minutes. The samples were then stored at −70° C. until ELISA for cytokines was carried out (within 2 weeks).
Polymyxin inhibits the action of endotoxin on leukocytes. […] In the absence of polymyxin, LPS induces 517 pg/ml of TNF-α, whereas in the presence of Polymyxin 11 pg/ml of TNF-α is released.
Initially, the effect of different fractions were examined in the presence of Polymyxin. […] Batch BO213 was 369 and high. […] Therefore, whether the hyperosmolarity of the samples was inhibiting or enhancing TNF-α release was investigated as set out below.

human PBMN [2] = test: Direct effect of composition on cytokine production by PBMN (IL-1α, IL-1β, IL-6, IL-8, GM-CSF, IFN-γ, IL-4; ELISA); details: LPS 1 μg, 24 hrs
human PBMN [3] = test: LPS-induced release of TNF by PBMN, LPS plus composition or fractions (Example 9)
Description: as §1, with “As control, PBS was used instead of composition.” left out
The effect of different volumes of the compositions of the invention in inhibiting LPS stimulated release of TNF was examined.
This separation technique is used for small polar substances. […] The precipitate and the soluble fraction were separated. Both the precipitate and soluble fraction were taken to dryness by lyophilization. The precipitate and soluble fraction were reconstituted in aqueous solutions and both analyzed by RP-HPLC and tested for TNF-α releasing activity.
In the next series of experiments, the activity of the precipitate and supernatants were evaluated after their separation by C18 RP-HPLC. The precipitate and supernatant were collected as 2 pools from RP-HPLC: 2 to 21 min and 21 to 46 min.

human PBMN [4] = test: Direct TNF release from PBMN by composition in the absence of LPS (ELISA); details: 24 hrs; seven patient samples
Description: as §1, with “Peripheral” for “In the studies of TNF, whole blood was drawn from 5 healthy subjects into heparinized Vacutainer tubes. Peripheral”
The direct stimulatory effect of Batch B0203 was tested at different volumes and then at different times.
Batch B0203 stimulated maximum TNF-release at about 100 μl (Table 16). […] Thus, the composition was able to stimulate TNF-release on its own, that is in the absence of LPS and the curves for TNF-release were similar to when the composition and LPS were combined.

[5] = test system: human peripheral blood mononuclear cells (PBMN); test: Survival of PBMN, trypan blue dye exclusion; details: Patient
Description: At the end of this period, the number of surviving cells was estimated by trypan blue dye exclusion.

[6] = LPS 50 ng, first line printed LPS (1) (Table 31)
[7] = LPS 50 ng, second line printed LPS (1) (Table 31)
[8] = second LPS section, LPS 1 μg/well, 24 hrs
[9] = second LPS section, LPS 1 μg/well, 48 hrs
[10] = second LPS section, LPS 10 μg/well, 24 hrs
[11] = second LPS section, LPS 10 μg/well, 48 hrs

Lipopolysaccharide [LPS]
TNF Released Total (human PBMN [1]; Polymyxin 50.000 units/ml, composition and fractions 200 μl, LPS 50 ng/10 μl, 2 patients (Table 21)): 31 ± 31 pg/mL
TNF Released −LPS (human PBMN [1]; Polymyxin 50,000 units/ml, LPS 50 ng/10 μl, composition 200 μl (Table 19)): 0 pg/mL
TNF Released Total (human PBMN [1]; Polymyxin 50,000 units/ml, LPS 50 ng/10 μl, composition 200 μl, 8 patients (Table 19)): 11 pg/mL and 11 ± 7 pg/mL
TNF Released Total (human PBMN [1]; Polymyxin 50,000 units/ml, composition and fractions 200 μl, LPS 50 ng/10 μl, 5 patients (Table 20)): 40 ± 25 pg/mL
TNF Released −LPS (human PBMN [1]; Polymyxin, 200 μl, 2 patients (Table 21)): 0 pg/mL
TNF Released −LPS (human PBMN [1]; Polymyxin, 200 μl, 5 patients (Table 20)): 0 pg/mL
GM-CSF released (human PBMN [2]): 54 ± 20 pg/mL
IFN-γ released (human PBMN [2]): 54 ± 94 pg/mL
IL-1β released (human PBMN [2]): 965 ± 99 pg/mL
IL-4 released (human PBMN [2]): <3.0 pg/mL
IL-6 released (human PBMN [2]): 2016 ± 41 pg/mL
IL-1α released (human PBMN [2]; eight patient samples): 315 ± 117 pg/mL
TNF Released (human PBMN [3]; 1X 199 Medium, LPS 10 ng/10 μl, 1 patient): 124 pg/mL
TNF Released (human PBMN [3]; 1X 199 Medium, LPS 50 ng/10 μl, 1 patient): 155 pg/mL
TNF Released (human PBMN [3]; 1X 199 Medium, LPS 100 ng/10 μl, 1 patient): 147 pg/mL
TNF Released (human PBMN [3]; 1X 199 Medium, LPS 200 ng/10 μl, 1 patient): 213 pg/mL
TNF Released (human PBMN [3]; 1X 199 Medium, LPS 1000 ng/10 μl, 1 patient): 404 pg/mL
TNF Released (human PBMN [3]; 1640 RPMI Medium, LPS 50 ng/10 μl, 1 patient): 356 pg/mL
TNF Released (human PBMN [3]; 1640 RPMI Medium, LPS 100 ng/10 μl, 1 patient): 323 pg/mL
TNF Released (human PBMN [3]; 1640 RPMI Medium, LPS 200 ng/10 μl, 1 patient): 455 pg/mL
TNF Released (human PBMN [3]; 1640 RPMI Medium, LPS 1000 ng/10 μl, 1 patient): 558 pg/mL
TNF Released by LPS (50 ng/ml) (human PBMN [3]; 2 hr): 697 pg/mL and 697 ± 94 pg/mL
TNF Released by LPS (50 ng/ml) (human PBMN [3]; 24 hr): 800 ± 222 pg/mL
TNF Released by LPS (50 ng/ml) (human PBMN [3]; 48 hr): 170 ± 149 pg/mL
TNF Released by LPS (50 ng/ml) (human PBMN [3]; 72 hr): 132 ± 147 pg/mL
TNF Released -LPS (human PBMN [3]; LPS 50 ng (Table 29)): 0 pg/mL
TNF Released -LPS (human PBMN [3]; LPS 50 ng (Table 30)): 0 pg/mL
TNF Released −LPS (human PBMN [3]; LPS 50 ng/10 μl (Table 24)): 0 pg/mL
TNF Released -LPS (human PBMN [3]; LPS 50 ng/10 μl (Table 25)): 0 pg/mL
TNF Released -LPS (human PBMN [3]; LPS 50 ng/10 μl (Table 26)): 0 pg/mL
TNF Released Total (human PBMN [3]; LPS 50 ng/10 μl, 1X 199 Medium, 2 patients (Table 26)): 136 ± 38 pg/mL
TNF Released Total (human PBMN [3]; LPS 50 ng/10 μl, 1X 199 Medium, 5 patients (Table 24)): 161 ± 50 pg/mL
TNF Released Total (human PBMN [3]; LPS 50 ng/10 μl, 199 Medium, 2 patients (Table 25)): 194 ± 93 pg/mL
TNF Released Total (human PBMN [3]; LPS 50 ng, 199 Medium, 5 patients (Table 29)): 322 ± 115 pg/mL
TNF Released Total (human PBMN [3]; LPS 50 ng, 199 Medium, 5 patients (Table 30)): 99 ± 43 pg/mL
TNF Released -LPS (human PBMN [3]; [6]): 0 pg/mL
TNF Released Total (human PBMN [3]; [6]): 136 ± 62 pg/mL
TNF Released -LPS (human PBMN [3]; [7]): 0 pg/mL
TNF Released Total (human PBMN [3]; [7]): 81 ± 25 pg/mL
TNF Released (human PBMN [3]; LPS (50 ng/ml) alone, Table 10): 915 ± 763
TNF Released −LPS (human PBMN [3]; absence of Polymyxin, 200 μl, 5 patients (Table 22)): 0 pg/mL
TNF Released Total (human PBMN [3]; absence of Polymyxin, composition and fractions 200 μl, LPS 50 ng/10 μl, 5 patients (Table 22)): 219 pg/mL
TNF Released −LPS (human PBMN [3]; absence of Polymyxin, footnote 200 μl, 3 patients (Table 23)): 0 pg/mL
TNF Released Total (human PBMN [3]; absence of Polymyxin, footnote: composition and fractions 200 μl, LPS 50 ng/10 μl, 3 patients (Table 23)): 195 ± 72 pg/mL
TNF Released −LPS (human PBMN [3]; no additive, LPS 50 ng/10 μl, composition 200 μl (Table 19)): 0 pg/mL
TNF Released Total (human PBMN [3]; no additive, LPS 50 ng/10 μl, composition 200 μl, 3 patients (Table 19)): 517 pg/mL and 517 ± 118 pg/mL
TNF Released (human PBMN [4]): 1501 ± 284 pg/mL
% viable ([5]; LPS 1 μg/well, 24 hrs): 43%
No. of Live PBMN per Well by Trypan Blue ([5]; LPS 1 μg/well, 24 hrs): 0.30 ×10^6
% viable ([5]; LPS 1 μg/well, 48 hrs): 40%
No. of Live PBMN per Well by Trypan Blue ([5]; LPS 1 μg/well, 48 hrs): 0.28 ×10^6
% viable ([5]; LPS 10 μg/well, 24 hrs): 36%
No. of Live PBMN per Well by Trypan Blue ([5]; LPS 10 μg/well, 24 hrs): 0.25 ×10^6
% viable ([5]; LPS 10 μg/well, 48 hrs): 18%
No. of Live PBMN per Well by Trypan Blue ([5]; LPS 10 μg/well, 48 hrs): 0.13 ×10^6
% viable [5, 8]: 46%
No. of Live PBMN per Well by Trypan Blue [5, 8]: 0.60 ×10^6
% viable [5, 9]: 41%
No. of Live PBMN per Well by Trypan Blue [5, 9]: 0.53 ×10^6
% viable [5, 10]: 12%
No. of Live PBMN per Well by Trypan Blue [5, 10]: 0.15 ×10^6
% viable [5, 11]: 12%
No. of Live PBMN per Well by Trypan Blue [5, 11]: 0.15 ×10^6
